According to BindingDB's records for patent US11547697 (Millennium Pharmaceuticals, 2023):

Experiments:
Experiment in all cases: Inhibition Assay of PI3K
[1] = molecular target: Phosphatidylinositol 4,5-bisphosphate 3-kinase catalytic subunit gamma isoform (Homo sapiens, UniProt P48736)
[2] = molecular target: T1, Phosphatidylinositol 4,5-bisphosphate 3-kinase catalytic subunit delta isoform (Homo sapiens, UniProt O00329)
T1 sequence (O00329 whole entry): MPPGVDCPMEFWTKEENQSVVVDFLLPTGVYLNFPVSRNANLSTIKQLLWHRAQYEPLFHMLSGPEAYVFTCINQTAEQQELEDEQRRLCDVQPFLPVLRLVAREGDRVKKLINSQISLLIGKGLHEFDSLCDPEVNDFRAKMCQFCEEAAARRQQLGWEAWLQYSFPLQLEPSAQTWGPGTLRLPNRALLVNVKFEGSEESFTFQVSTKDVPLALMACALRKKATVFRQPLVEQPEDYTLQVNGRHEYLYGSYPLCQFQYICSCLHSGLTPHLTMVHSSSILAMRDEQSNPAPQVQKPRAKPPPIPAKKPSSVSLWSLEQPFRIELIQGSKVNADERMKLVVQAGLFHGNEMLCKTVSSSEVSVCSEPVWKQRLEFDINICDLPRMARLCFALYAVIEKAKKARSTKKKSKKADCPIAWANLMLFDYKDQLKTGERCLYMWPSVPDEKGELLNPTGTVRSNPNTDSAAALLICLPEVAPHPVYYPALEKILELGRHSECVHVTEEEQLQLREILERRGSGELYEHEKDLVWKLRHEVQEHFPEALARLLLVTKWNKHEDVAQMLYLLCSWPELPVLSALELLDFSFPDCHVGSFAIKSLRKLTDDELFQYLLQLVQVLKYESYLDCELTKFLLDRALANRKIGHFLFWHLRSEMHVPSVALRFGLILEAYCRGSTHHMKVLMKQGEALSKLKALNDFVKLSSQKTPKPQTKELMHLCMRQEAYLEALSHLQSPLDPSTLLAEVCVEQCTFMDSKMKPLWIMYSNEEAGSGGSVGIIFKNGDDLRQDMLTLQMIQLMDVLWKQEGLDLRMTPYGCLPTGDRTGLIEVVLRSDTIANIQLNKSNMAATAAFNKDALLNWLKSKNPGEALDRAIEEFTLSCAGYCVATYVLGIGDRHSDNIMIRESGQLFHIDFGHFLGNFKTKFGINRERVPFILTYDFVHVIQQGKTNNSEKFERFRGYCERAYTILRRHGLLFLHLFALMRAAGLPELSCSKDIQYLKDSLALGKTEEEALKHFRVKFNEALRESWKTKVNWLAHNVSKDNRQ

[3] = molecular target: Phosphatidylinositol 4,5-bisphosphate 3-kinase catalytic subunit beta isoform (Homo sapiens, UniProt P42338)
Chain of Phosphatidylinositol 4,5-bisphosphate 3-kinase catalytic subunit beta isoform (P42338 whole entry, canonical isoform): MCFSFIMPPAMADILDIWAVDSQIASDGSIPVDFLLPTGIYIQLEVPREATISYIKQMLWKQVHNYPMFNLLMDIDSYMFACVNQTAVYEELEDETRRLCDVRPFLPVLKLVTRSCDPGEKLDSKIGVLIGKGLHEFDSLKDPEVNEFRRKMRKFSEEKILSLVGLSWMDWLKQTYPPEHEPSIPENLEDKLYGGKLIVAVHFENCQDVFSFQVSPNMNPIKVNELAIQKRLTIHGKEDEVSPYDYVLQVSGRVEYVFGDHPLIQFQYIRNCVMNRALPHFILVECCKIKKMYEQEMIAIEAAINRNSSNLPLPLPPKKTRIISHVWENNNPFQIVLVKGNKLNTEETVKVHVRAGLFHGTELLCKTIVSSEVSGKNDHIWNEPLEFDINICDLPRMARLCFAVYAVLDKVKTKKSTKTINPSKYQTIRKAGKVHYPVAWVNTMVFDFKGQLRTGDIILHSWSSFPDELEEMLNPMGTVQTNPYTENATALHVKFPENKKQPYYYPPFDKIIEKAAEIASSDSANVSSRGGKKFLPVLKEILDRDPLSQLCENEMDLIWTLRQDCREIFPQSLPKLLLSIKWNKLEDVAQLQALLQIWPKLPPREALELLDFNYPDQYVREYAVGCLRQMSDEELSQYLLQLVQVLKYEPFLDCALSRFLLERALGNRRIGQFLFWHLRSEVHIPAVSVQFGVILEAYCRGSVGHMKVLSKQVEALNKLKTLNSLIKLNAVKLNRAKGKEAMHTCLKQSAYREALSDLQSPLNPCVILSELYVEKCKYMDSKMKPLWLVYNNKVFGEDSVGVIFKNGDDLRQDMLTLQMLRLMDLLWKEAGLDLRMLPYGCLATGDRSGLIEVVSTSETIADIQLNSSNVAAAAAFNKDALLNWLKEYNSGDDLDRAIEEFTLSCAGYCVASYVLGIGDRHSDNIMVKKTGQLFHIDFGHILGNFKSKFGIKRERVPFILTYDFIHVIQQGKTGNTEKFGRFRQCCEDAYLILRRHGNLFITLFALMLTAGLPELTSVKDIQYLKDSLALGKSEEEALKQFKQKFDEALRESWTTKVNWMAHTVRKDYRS

Chain of Phosphatidylinositol 4,5-bisphosphate 3-kinase catalytic subunit gamma isoform (P48736 whole entry, canonical isoform): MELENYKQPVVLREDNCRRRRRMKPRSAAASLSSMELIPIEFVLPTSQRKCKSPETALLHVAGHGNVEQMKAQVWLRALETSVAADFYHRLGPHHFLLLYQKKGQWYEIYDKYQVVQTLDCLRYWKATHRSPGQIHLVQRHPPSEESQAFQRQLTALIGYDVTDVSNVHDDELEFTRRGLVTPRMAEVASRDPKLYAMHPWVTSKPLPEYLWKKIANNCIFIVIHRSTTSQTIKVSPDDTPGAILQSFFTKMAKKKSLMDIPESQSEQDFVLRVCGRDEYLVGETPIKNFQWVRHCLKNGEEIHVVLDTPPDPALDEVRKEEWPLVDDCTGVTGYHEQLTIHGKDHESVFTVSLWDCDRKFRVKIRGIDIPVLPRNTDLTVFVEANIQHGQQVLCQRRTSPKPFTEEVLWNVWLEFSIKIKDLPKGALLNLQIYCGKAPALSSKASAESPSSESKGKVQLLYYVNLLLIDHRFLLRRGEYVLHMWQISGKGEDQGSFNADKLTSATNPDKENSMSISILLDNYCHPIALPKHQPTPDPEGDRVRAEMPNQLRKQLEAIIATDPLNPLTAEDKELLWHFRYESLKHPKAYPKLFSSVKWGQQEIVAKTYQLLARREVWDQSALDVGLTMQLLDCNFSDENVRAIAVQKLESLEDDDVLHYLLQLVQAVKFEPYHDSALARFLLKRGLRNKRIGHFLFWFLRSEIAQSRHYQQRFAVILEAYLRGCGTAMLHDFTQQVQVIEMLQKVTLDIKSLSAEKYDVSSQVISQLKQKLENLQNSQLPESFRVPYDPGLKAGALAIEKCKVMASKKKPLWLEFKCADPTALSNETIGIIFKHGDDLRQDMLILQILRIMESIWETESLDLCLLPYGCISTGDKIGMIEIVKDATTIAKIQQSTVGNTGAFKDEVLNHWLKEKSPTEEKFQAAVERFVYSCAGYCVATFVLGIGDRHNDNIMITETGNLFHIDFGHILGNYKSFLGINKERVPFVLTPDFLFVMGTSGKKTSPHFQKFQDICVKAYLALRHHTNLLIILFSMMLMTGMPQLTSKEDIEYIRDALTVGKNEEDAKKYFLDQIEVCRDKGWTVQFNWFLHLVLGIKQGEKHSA

| IC50 [1] | IC50 [2] | IC50 [3] | SMILES |
| --- | --- | --- | --- |
| > 10 µM |  |  | Nc1nc2cc(-c3ccc4ncc(C(=O)NCCN5CCCC5)n4c3)ccc2o1 [US11547697, Compound 296] |
|  | > 10 µM | > 10 µM | CO[C@@H]1CCN(C(=O)c2cnc3ccc(-c4ccc5oc(N)nc5c4)cn23)C1 [US11547697, Compound 464] |
|  | > 10 µM | > 10 µM | Nc1nc2cc(-c3ccc4ncc(C(=O)N5CC[C@H](N6CCOCC6)C5)n4c3)ccc2o1 [US11547697, Compound 465] |
|  | > 10 µM | > 10 µM | Nc1nc2cc(-c3ccc4ncc(C(=O)N5CCC(F)(F)C5)n4c3)ccc2o1 [US11547697, Compound 471] |
|  | > 10 µM | > 10 µM | Nc1nc2cc(-c3ccc4ncc(C(=O)N5CC(F)(F)C5)n4c3)ccc2o1 [US11547697, Compound 473] |
|  | > 10 µM | > 10 µM | Nc1nc2cc(-c3ccc4ncc(C(=O)N5CC[C@H](F)C5)n4c3)ccc2o1 [US11547697, Compound 476] |
|  | > 10 µM | > 10 µM | CNc1noc2cc(-c3ccc4ncc(C(=O)N5CCOCC5)n4c3)ccc12 [US11547697, Compound 486] |
|  | > 10 µM | > 10 µM | Nc1nc2cc(-c3ccc4ncc(C(=O)N5CCC(N6CC(F)(F)C6)C5)n4c3)ccc2o1 (stereo not drawn) [US11547697, Compound 498] |
|  | > 10 µM | > 10 µM | Nc1nc2cc(-c3ccc4ncc(C(=O)N5CCC6(C5)OCCO6)n4c3)ccc2o1 [US11547697, Compound 499] |
|  | > 10 µM | > 10 µM | Nc1nc2cc(-c3ccc4ncc(C(=O)N5CCC(F)(F)CC5)n4c3)ccc2o1 [US11547697, Compound 501] |
|  | > 10 µM | > 10 µM | Nc1nc2cc(-c3ccc4ncc(C(=O)N5CCC(F)CC5)n4c3)ccc2o1 [US11547697, Compound 503] |
|  | > 10 µM | > 10 µM | CC1(C)CN(C(=O)c2cnc3ccc(-c4ccc5oc(N)nc5c4)cn23)CCO1 [US11547697, Compound 513] |

Further lines, the compound ahead of its results:

| SMILES | IC50 [1] | IC50 [2] | IC50 [3] |
| --- | --- | --- | --- |
| CN1CCC(n2cnc3ccc(-c4ccc5oc(N)nc5c4)cc3c2=O)CC1 [US11547697, Compound 36] | > 10 µM |  |  |
| Nc1nc2cc(-c3ccc4ncn(C5CCOCC5)c(=O)c4c3)ccc2o1 [US11547697, Compound 55] | > 10 µM | > 10 µM |  |
| CNC(=O)CN1CCN(c2cnc3ccc(-c4ccc5oc(N)nc5c4)cc3n2)CC1 [US11547697, Compound 120] | > 10 µM |  |  |
| Nc1nc2cc(-c3ccc4ncc(C(=O)NC5CCC(O)CC5)n4c3)ccc2o1 (stereo not drawn) [US11547697, Compound 143] | < 0.1 µM |  |  |
| CN1CCC(N(C)C(=O)c2cnc3ccc(-c4ccc5oc(N)nc5c4)cn23)CC1 [US11547697, Compound 165] | > 10 µM |  |  |
| Nc1nc2cc(-c3ccc4ncc(N5CCC(N)CC5)nc4c3)ccc2o1 [US11547697, Compound 168] | > 10 µM |  |  |
| CC(C)(N)C(=O)N1CCN(c2cnc3ccc(-c4ccc5oc(N)nc5c4)cc3n2)CC1 [US11547697, Compound 213] | > 10 µM |  |  |
| Nc1nc2cc(-c3ccc4ncn(CCCN5CCCC5)c(=O)c4c3)ccc2o1 [US11547697, Compound 271] | > 10 µM |  |  |
| Nc1nc2cc(-c3ccc4ncc(N5CC(N6CCN(CC7CC7)CC6)C5)nc4c3)ccc2o1 [US11547697, Compound 335] | > 10 µM |  |  |
| CC1(C)CN(c2cnc3ccc(-c4ccc5oc(N)nc5c4)cc3n2)CCN1 [US11547697, Compound 336] | > 10 µM |  |  |
| C[C@H]1CN(C2CN(c3cnc4ccc(-c5ccc6oc(N)nc6c5)cc4n3)C2)CCN1 [US11547697, Compound 350] | > 10 µM |  |  |
| Cc1c(-c2ccc3oc(N)nc3c2)ccc2ncc(N3CCN[C@@H](C)C3)nc12 [US11547697, Compound 374] | > 10 µM |  |  |
| CN1CCN([C@@H]2CCN(c3cnc4ccc(-c5ccc6oc(N)nc6c5)cc4n3)C2)CC1 [US11547697, Compound 379] | > 10 µM |  |  |
| CN1CCC(n2cnc3ccc(-c4cnc(Cl)c(NS(C)(=O)=O)c4)cc3c2=O)CC1 [US11547697, Compound 526] | > 10 µM |  |  |
